Data reported in US9040712B2, “Thiadiazole analogs thereof and methods for treating SMN-deficiency-related-conditions” (NOVARTIS AG, priority 2013, dated 2015).

Each compound was assayed on SMN protein (assay: cellular SMN ELISA (SMN protein elevation)). Conditions: myoblast cell line derived from SMNdelta7 mouse model; 24 hours compound treatment; concentration range 100 pM-10 uM.
Assay type: cell-based
Method in brief: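 Myoblasts derived from the SMNdelta7 mouse model, 3000 cells/well, treated with compound (100 pM–10 uM) for 24 h, then lysed in modified RIPA buffer. SMN protein quantified by sandwich ELISA (anti-SMN mAb capture, rabbit polyclonal detection, HRP/TMB, 450 nm). Results given as fold activation over DMSO and EC50.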

First: COc1cc(-c2ccn[nH]2)ccc1-c1nnc(N(C)C2CC(C)(C)NC(C)(C)C2)s1 [Example 73, 5-(2-methoxy-4-(1H-pyrazol-5-yl)phenyl)-N-methyl-N-(2,2,6,6-tetramethylpiperidin-4-yl)-1,3,4-thiadiazol-2-amine]
Second: COc1cc(-c2cccnc2)ccc1-c1nnc(N(C)C2CC(C)(C)NC(C)(C)C2)s1 [Example 75, 5-(2-methoxy-4-(pyridin-3-yl)phenyl)-N-methyl-N-(2,2,6,6-tetramethylpiperidin-4-yl)-1,3,4-thiadiazol-2-amine]
The EC50 of the first is 2.1-fold lower: 110 nM for the first, 235 nM for the second. The first is the more potent here.

First: COc1cc(-c2sc(C)nc2C)ccc1-c1nnc(N(C)C2CC(C)(C)NC(C)(C)C2)s1 [Example 74, 5-(4-(2,4-dimethylthiazol-5-yl)-2-methoxyphenyl)-N-methyl-N-(2,2,6,6-tetramethylpiperidin-4-yl)-1,3,4-thiadiazol-2-amine]
Second: COc1cc(-c2ccc(-c3nnc(N(C)C4CC(C)(C)NC(C)(C)C4)s3)c(OC)c2)ccn1 [Example 77, 5-(2-methoxy-4-(2-methoxypyridin-4-yl)phenyl)-N-methyl-N-(2,2,6,6-tetramethyl-piperidin-4-yl)-1,3,4-thiadiazol-2-amine]
The EC50 of the first is 1.6-fold higher: 85 nM for the first, 52 nM for the second.

Compared with `CN(c1nnc(-c2ccc(-c3cn[nH]c3)cc2F)s1)C1CC(C)(C)NC(C)(C)C1` [Example 76, 5-(2-fluoro-4-(1H-pyrazol-4-yl)phenyl)-N-methyl-N-(2,2,6,6-tetramethylpiperidin-4-yl)-1,3,4-thiadiazol-2-amine], `COc1ccc(-c2ccc(-c3nnc(N(C)C4CC(C)(C)NC(C)(C)C4)s3)c(OC)c2)cn1` [Example 78, 5-(2-methoxy-4-(6-methoxypyridin-3-yl)phenyl)-N-methyl-N-(2,2,6,6-tetramethyl-piperidin-4-yl)-1,3,4-thiadiazol-2-amine] is 3.8-fold higher in EC50: 43 nM for the first, 165 nM for the second.

`CN1C[C@@H]2CN(c3nnc(-c4ccc(-c5cnn(C)c5)cc4Cl)s3)C[C@@H]2C1` [Example 79, 2-(2-chloro-4-(1-methyl-1H-pyrazol-4-yl)phenyl)-5-((3aR,6aS)-5-methylhexahydropyrrolo[3,4-c]pyrrol-2(1H)-yl)-1,3,4-thiadiazole] and `CN1C[C@@H]2CN(c3nnc(-c4ccc(-c5cn[nH]c5)cc4Cl)s3)C[C@@H]2C1` [Example 80, 2-(2-chloro-4-(1H-pyrazol-4-yl)phenyl)-5-((3aR,6aS)-5-methylhexahydropyrrolo[3,4-c]pyrrol-2(1H)-yl)-1,3,4-thiadiazole] are within 1.5-fold of each other in EC50: 150 nM for the first, 149 nM for the second.

Compared with `CN1CC[C@@H]2CN(c3nnc(-c4ccc(-c5cn[nH]c5)cc4Cl)s3)C[C@@H]21` [Example 81, 2-(2-chloro-4-(1H-pyrazol-4-yl)phenyl)-5-((3aR,6aR)-1-methylhexahydropyrrolo[3,4-b]pyrrol-5(1H)-yl)-1,3,4-thiadiazole], `CN(C)CC1CN(c2nnc(-c3ccc(-c4cn[nH]c4)cc3Cl)s2)CCO1` (stereo not shown) [Example 82, 1-(4-(5-(2-chloro-4-(1H-pyrazol-4-yl)phenyl)-1,3,4-thiadiazol-2-yl)morpholin-2-yl)-N,N-dimethylmethanamine] is 1.5-fold lower in EC50: 1540 nM for the first, 994 nM for the second. The second is the more potent here.

`CN1CCC2(CCCN(c3nnc(-c4ccc(-c5cn[nH]c5)cc4Cl)s3)C2)C1` (stereo not shown) [Example 83, 2-(2-chloro-4-(1H-pyrazol-4-yl)phenyl)-5-(2-methyl-2,7-diazaspiro[4.5]decan-7-yl)-1,3,4-thiadiazole] showed an EC50 of 3280 nM.

Compared with `COc1cc(-c2ccn[nH]2)ccc1-c1nnc(N(C)C2CC(C)(C)NC(C)(C)C2)s1` [Example 73, 5-(2-methoxy-4-(1H-pyrazol-5-yl)phenyl)-N-methyl-N-(2,2,6,6-tetramethylpiperidin-4-yl)-1,3,4-thiadiazol-2-amine], `COc1cc(-c2cccnc2)ccc1-c1nnc(N(C)C2CC(C)(C)NC(C)(C)C2)s1` [Example 75, 5-(2-methoxy-4-(pyridin-3-yl)phenyl)-N-methyl-N-(2,2,6,6-tetramethylpiperidin-4-yl)-1,3,4-thiadiazol-2-amine] is lower in “SMN Activity Fold (fold activation over DMSO control)” value (“SMN Activity Fold” for short): 2.73 fold for the first, 2.44 fold for the second.

First: COc1cc(-c2sc(C)nc2C)ccc1-c1nnc(N(C)C2CC(C)(C)NC(C)(C)C2)s1 [Example 74, 5-(4-(2,4-dimethylthiazol-5-yl)-2-methoxyphenyl)-N-methyl-N-(2,2,6,6-tetramethylpiperidin-4-yl)-1,3,4-thiadiazol-2-amine]
Second: COc1cc(-c2ccc(-c3nnc(N(C)C4CC(C)(C)NC(C)(C)C4)s3)c(OC)c2)ccn1 [Example 77, 5-(2-methoxy-4-(2-methoxypyridin-4-yl)phenyl)-N-methyl-N-(2,2,6,6-tetramethyl-piperidin-4-yl)-1,3,4-thiadiazol-2-amine]
The “SMN Activity Fold” value of the first is lower: 2.64 fold for the first, 3.33 fold for the second.

Going from `CN(c1nnc(-c2ccc(-c3cn[nH]c3)cc2F)s1)C1CC(C)(C)NC(C)(C)C1` [Example 76, 5-(2-fluoro-4-(1H-pyrazol-4-yl)phenyl)-N-methyl-N-(2,2,6,6-tetramethylpiperidin-4-yl)-1,3,4-thiadiazol-2-amine] to `COc1ccc(-c2ccc(-c3nnc(N(C)C4CC(C)(C)NC(C)(C)C4)s3)c(OC)c2)cn1` [Example 78, 5-(2-methoxy-4-(6-methoxypyridin-3-yl)phenyl)-N-methyl-N-(2,2,6,6-tetramethyl-piperidin-4-yl)-1,3,4-thiadiazol-2-amine], the “SMN Activity Fold” value falls from 3.06 fold to 2.52 fold.

First: CN1C[C@@H]2CN(c3nnc(-c4ccc(-c5cnn(C)c5)cc4Cl)s3)C[C@@H]2C1 [Example 79, 2-(2-chloro-4-(1-methyl-1H-pyrazol-4-yl)phenyl)-5-((3aR,6aS)-5-methylhexahydropyrrolo[3,4-c]pyrrol-2(1H)-yl)-1,3,4-thiadiazole]
Second: CN1C[C@@H]2CN(c3nnc(-c4ccc(-c5cn[nH]c5)cc4Cl)s3)C[C@@H]2C1 [Example 80, 2-(2-chloro-4-(1H-pyrazol-4-yl)phenyl)-5-((3aR,6aS)-5-methylhexahydropyrrolo[3,4-c]pyrrol-2(1H)-yl)-1,3,4-thiadiazole]
The “SMN Activity Fold” value of the first is higher: 2.76 fold for the first, 2.70 fold for the second.

Going from `CN1CC[C@@H]2CN(c3nnc(-c4ccc(-c5cn[nH]c5)cc4Cl)s3)C[C@@H]21` [Example 81, 2-(2-chloro-4-(1H-pyrazol-4-yl)phenyl)-5-((3aR,6aR)-1-methylhexahydropyrrolo[3,4-b]pyrrol-5(1H)-yl)-1,3,4-thiadiazole] to `CN(C)CC1CN(c2nnc(-c3ccc(-c4cn[nH]c4)cc3Cl)s2)CCO1` (stereo not shown) [Example 82, 1-(4-(5-(2-chloro-4-(1H-pyrazol-4-yl)phenyl)-1,3,4-thiadiazol-2-yl)morpholin-2-yl)-N,N-dimethylmethanamine], the “SMN Activity Fold” value rises from 2.38 fold to 2.50 fold.

In the case of `CN1CCC2(CCCN(c3nnc(-c4ccc(-c5cn[nH]c5)cc4Cl)s3)C2)C1` (stereo not shown) [Example 83, 2-(2-chloro-4-(1H-pyrazol-4-yl)phenyl)-5-(2-methyl-2,7-diazaspiro[4.5]decan-7-yl)-1,3,4-thiadiazole], the “SMN Activity Fold” value is reported as 2.59 fold.
